Results as given in article PMC9234963, “Optimizing Shape Complementarity Enables the Discovery of Potent Tricyclic BCL6 Inhibitors” (Journal of Medicinal Chemistry, 2022).
Where “and” joins values, the source holds several entries; their conditions need not be identical. Equal values may be shown once. Read-outs that look alike come from different tables or passages of the source.

Legend:
[1] = NMR kinetic solubility assay; assay type: physicochemical; conditions: kinetic solubility by NMR, HEPES buffer pH 8, 4% DMSO
Procedure: 3. Supplementary experimental: physicochemical assays
The plate was then sealed and incubated at room temperature for 20 hours, without shaking. The plate was centrifuged again for 1 minute at […]
spectrometer equipped with a 5 mm TCI-CryoProbe. […]
deuterated solvent. […] All NMR data were acquired at the […]
contained 16k time-domain data points. Relaxation delay was set to 20 sec. Water signal was […]
The quantification of the compound concentration was carried out using MestReNova

human BCL6 BTB domain = human BCL6 BTB domain (Homo sapiens, UniProt P41182); test: biochemical; conditions: for BCL6 TR-FRET mean pIC50: mean of replicates; for LE: ligand efficiency, 1.4*(pIC50)/HAC from TR-FRET; for LLE: lipophilic ligand efficiency from TR-FRET pIC50 and MoKa logD7.4
Source text: 6. Supplementary tables … S-17
Table S1: summary statistics and individual replicate values … S-17 […]
1. Supplementary experimental: protein production, purification and crystallography 1.1 BCL6 constructs used for assays and crystallography
A first construct of BCL6 BTB domain, which we will refer to as Trx-6His-HRV3C-BCL6, was obtained […]
3C protease cleavage site. For the TR-FRET assay, the Trx-6His-HRV3C-BCL6 protein construct was […]
used without cleaving the tag, as a 6His was needed to bind to the anti-6His-Terbium antibody. […]
For both plasmid constructs described above, transformed BL21-AI E. coli cells were grown in LB […]
carried out at 18 °C for 18 hours. Cells were harvested by centrifugation (5500 g for 30 minutes at 4 […]
oC) and stored at -80 °C.
2. Supplementary experimental: biological assay conditions
IC50 values were determined using […]
a sigmoidal four-parameter logistic fit equation.
Individual replicates shown in supplementary

[2] = HPLC kinetic solubility assay; assay type: physicochemical; conditions: kinetic solubility by HPLC, 10 mM phosphate-buffered saline pH 7.4, 1% DMSO
Procedure: 3.2 HPLC solubility assay
DMSO. Following shaking of the suspension on a Bohdan Shaker at 500 rpm for 2 hours at room […]
200 µL of the supernatant was transferred to a 2 mL Agilent vial containing 50 µL of DMSO (Sigma […]
detection using an external standard which was prepared by pipetting 10 µL of the same batch of […]
The detail of the HPLC method is as following: chromatographic separation at 30°C is carried out over a 5 minute gradient elution method from 90:10 to 10:90 water:methanol (both modified with 0.1% formic acid) at a flow rate of 1.5 mL/min. Calibration curve is prepared by injecting 0.5, 2.5, and 5 µL of compound external standard.
62.5 µL of compound solubility sample. […]

PAMPA permeability = conditions: pH 7.4
[3] = BCL6 TR-FRET IC50 individual replicates, single replicates, 10 nM BCL6 for early examples, else 1 nM
[4] = read-out: BCL6 TR-FRET IC50, geometric mean of replicates
[5] = read-out: BCL6 TR-FRET IC50 individual replicates, single replicates, 10 nM BCL6 for early examples, else 1 nM
[6] = BCL6 TR-FRET mean pIC50, mean of replicates
[7] = BCL6 TR-FRET IC50, geometric mean of replicates

SMILES	Aq. Sol [1]	IC50 (human BCL6 BTB domain; [3])	BCL6 TR-FRET mean pIC50 (human BCL6 BTB domain)	IC50 (human BCL6 BTB domain; [4])	further results
C[C@H]1C[C@H](C)Oc2c(c3cc(Nc4ccnc(Cl)c4C#N)ccc3n(C)c2=O)N1 [Compound 13a, 2-Chloro-4-(((2S,4S)-2,4,7-trimethyl-6-oxo-1,2,3,4,6,7-hexahydro-[1,4]oxazepino[2,3-c]quinolin-10-yl)amino)nicotinonitrile]	114 µM	–	–	–	–
CCC1CCOc2c(c3cc(Nc4ccnc(Cl)c4C#N)ccc3n(C)c2=O)N1 (stereo not shown) [Compound 11b, 2-Chloro-4-((2-ethyl-7-methyl-6-oxo-1,2,3,4,6,7-hexahydro-[1,4]oxazepino[2,3-c]quinolin-10-yl)amino)nicotinonitrile]	96 µM	454 nM and 496 nM and 1020 nM	6.21	612 nM and 610 nM	–
Cn1c(=O)c2c(c3cc(Nc4ccnc(Cl)c4C#N)ccc31)NC(C(F)F)CCO2 (stereo not shown) [Compound 11e, 2-Chloro-4-((2-(difluoromethyl)-7-methyl-6-oxo-1,2,3,4,6,7-hexahydro-[1,4]oxazepino[2,3-c]quinolin-10-yl)amino)nicotinonitrile]	119 µM	2150 nM and 1540 nM and 2500 nM	5.69	2020 nM and 2000 nM	–
Cn1c(=O)c2c(c3cc(Nc4ccnc(Cl)c4C#N)ccc31)NCCCO2 [Compound 10, 2-Chloro-4-((7-methyl-6-oxo-1,2,3,4,6,7-hexahydro-[1,4]oxazepino[2,3-c]quinolin-10-yl)amino)nicotinonitrile]	–	15600 nM and 22400 nM	4.73	18700 nM and 19000 nM	Aq. Sol [2]: 12 µM
C[C@H]1COCc2c(c3cc(Nc4ccnc(Cl)c4C#N)ccc3n(C)c2=O)N1 [Compound 8, (S)-2-Chloro-4-((2,7-dimethyl-6-oxo-1,2,3,5,6,7-hexahydro-[1,4]oxazepino[6,5-c]quinolin-10-yl)amino)nicotinonitrile]	–	2350 nM	5.65	2240 nM and 2200 nM	IC50 (human BCL6 BTB domain; [5]): 2190 nM and 2180 nM
CNC(=O)COc1cc2cc(Nc3nc(N4C[C@H](C)C[C@H](C)C4)ncc3Cl)ccc2n(C)c1=O [BI-3802, reference compound]	–	12 nM and 51 nM and 25 nM and 107 nM and 39 nM and 21 nM	–	–	IC50 (human BCL6 BTB domain; [6]): 33.1 nM; LE (human BCL6 BTB domain): 0.31; LLE (human BCL6 BTB domain): 3.98
Cn1c(=O)c2c(c3cc(Nc4ccnc(Cl)c4C#N)ccc31)NC(C1CCC1)CCO2 (stereo not shown) [Compound 11c, 2-Chloro-4-((2-cyclobutyl-7-methyl-6-oxo-1,2,3,4,6,7-hexahydro-[1,4]oxazepino[2,3-c]quinolin-10-yl)amino)nicotinonitrile]	26 µM	3570 nM and 5260 nM	5.37	4310 nM and 4300 nM	IC50 (human BCL6 BTB domain; [5]): 4270 nM
CCNc1cc(=O)[nH]c2ccc(Nc3ccnc(Cl)c3C#N)cc12 [Compound 2]	–	–	5.88	1310 nM and 1300 nM	IC50 (human BCL6 BTB domain; [7]): 1200 nM; Aq. Sol [2]: 9.7 µM; PAMPA Pe (7.4) (PAMPA permeability): <0.1 × 10^–6 cm s^–1
CNC(=O)COc1cc2cc(Nc3nc(N4CCC(C(=O)N(C)C)CC4)ncc3Cl)cc(OC)c2n(C)c1=O [BI-3812, reference compound]	–	3 nM	–	–	IC50 (human BCL6 BTB domain; [6]): 3.02 nM; LE (human BCL6 BTB domain): 0.31; LLE (human BCL6 BTB domain): 6.76
Cn1c(=O)c2c(c3cc(Nc4ccnc(Cl)c4C#N)ccc31)N[C@H](C1CC1)C(F)(F)CO2 [Compound 14, (R)-2-Chloro-4-((2-cyclopropyl-3,3-difluoro-7-methyl-6-oxo-1,2,3,4,6,7-hexahydro-[1,4]oxazepino[2,3-c]quinolin-10-yl)amino)nicotinonitrile]	–	615 nM and 397 nM	6.31	494 nM and 490 nM	–
CCNc1c(C)c(=O)n(C)c2ccc(Nc3ccnc(Cl)c3C#N)cc12 [Compound 4, 2-Chloro-4-((4-(ethylamino)-1,3-dimethyl-2-oxo-1,2-dihydroquinolin-6-yl)amino)nicotinonitrile]	–	6090 nM and 4590 nM and 6040 nM	5.25	5580 nM and 5600 nM	IC50 (human BCL6 BTB domain; [5]): 5570 nM and 5760 nM
CC1Nc2c(c(=O)n(C)c3ccc(Nc4ccnc(Cl)c4C#N)cc23)OCC12CC2 (stereo not shown) [Compound 13d, 2-Chloro-4-((2′,7′-dimethyl-6′-oxo-1′,2′,6′,7′-tetrahydro-4′H-spiro[cyclopropane-1,3′-[1,4]oxazepino[2,3-c]quinolin]-10′-yl)amino)nicotinonitrile]	126 µM	1070 nM and 2070 nM and 1870 nM	5.8	1590 nM and 1600 nM	–
C[C@@H]1CCOc2c(c3cc(Nc4ccnc(Cl)c4C#N)ccc3n(C)c2=O)N1 [Compound 9b, (R)-2-Chloro-4-((2,7-dimethyl-6-oxo-1,2,3,4,6,7-hexahydro-[1,4]oxazepino-[2,3-c]quinolin-10-yl)amino)nicotinonitrile]	190^+ μM	–	–	–	–
C[C@H]1COC(=O)c2c(c3cc(Nc4ccnc(Cl)c4C#N)ccc3n(C)c2=O)N1 [Compound 7, (S)-2-Chloro-4-((2,7-dimethyl-5,6-dioxo-1,2,3,5,6,7-hexahydro-[1,4]oxazepino[6,5-c]quinolin-10-yl)amino)nicotinonitrile]	–	153 nM and 151 nM and 56 nM and 58 nM	7.03	94 nM	IC50 (human BCL6 BTB domain; [5]): 98 nM; Papp (PAMPA permeability; PAMPA): < 0.2 ×10⁻⁶ cm/s
CC1Nc2c(c(=O)n(C)c3ccc(Nc4ccnc(Cl)c4C#N)cc23)OCC1(C)C (stereo not shown) [Compound 13c, 2-Chloro-4-((2,3,3,7-tetramethyl-6-oxo-1,2,3,4,6,7-hexahydro-[1,4]oxazepino[2,3-c]quinolin-10-yl)amino)nicotinonitrile]	31 µM	–	–	–	–
CC1COc2c(c3cc(Nc4ccnc(Cl)c4C#N)ccc3n(C)c2=O)N1 (stereo not shown) [Compound 6, 2-Chloro-4-((2,6-dimethyl-5-oxo-2,3,5,6-tetrahydro-1H-[1,4]oxazino[2,3-c]quinolin-9-yl)amino)nicotinonitrile]	–	1110 nM and 1390 nM and 1530 nM	5.88	1330 nM and 1300 nM	Aq. Sol [2]: 11 µM
C[C@H]1CCOc2c(c3cc(Nc4ccnc(Cl)c4C#N)ccc3n(C)c2=O)N1 [Compound 9a, (S)-2-Chloro-4-((2,7-dimethyl-6-oxo-1,2,3,4,6,7-hexahydro-[1,4]oxazepino-[2,3-c]quinolin-10-yl)amino)nicotinonitrile]	200^+ μM and 199 μM	–	–	–	–
CC1CCc2c(c3cc(Nc4ccnc(Cl)c4C#N)ccc3n(C)c2=O)N1 (stereo not shown) [Compound 5b, 2-Chloro-4-((2,6-dimethyl-5-oxo-1,2,3,4,5,6-hexahydrobenzo[h][1,6]-naphthyridin-9-yl)amino)nicotinonitrile]	–	1030 nM and 960 nM and 1460 nM and 1670 nM and 6960 nM and 4820 nM	5.68	2080 nM and 2100 nM	Aq. Sol [2]: 1.8 µM
CC1CC(C)(C)Oc2c(c3cc(Nc4ccnc(Cl)c4C#N)ccc3n(C)c2=O)N1 (stereo not shown) [Compound 13b, 2-Chloro-4-((2,4,4,7-tetramethyl-6-oxo-1,2,3,4,6,7-hexahydro-[1,4]oxazepino[2,3-c]quinolin-10-yl)amino)nicotinonitrile]	12 µM	8700 nM and 16500 nM and > 6600 nM	–	–	IC50 (human BCL6 BTB domain; [7]): > 9800 nM
CC(C)C1CCOc2c(c3cc(Nc4ccnc(Cl)c4C#N)ccc3n(C)c2=O)N1 (stereo not shown) [Compound 11d, 2-Chloro-4-((2-isopropyl-7-methyl-6-oxo-1,2,3,4,6,7-hexahydro-[1,4]oxazepino[2,3-c]quinolin-10-yl)amino)nicotinonitrile]	40 µM	2410 nM and 3460 nM and 3640 nM	5.51	3120 nM and 3100 nM	–
N#Cc1c(Nc2ccc3[nH]c(=O)c4c(c3c2)NCCC4)ccnc1Cl [Compound 5a, 2-Chloro-4-((5-oxo-1,2,3,4,5,6-hexahydrobenzo[h][1,6]naphthyridin-9-yl)amino)nicotinonitrile]	–	7060 nM and 6930 nM and 3890 nM and 7370 nM	5.21	6120 nM and 6100 nM	Aq. Sol [2]: 12 µM
